{"source": "patent US20030171424A1", "about": "“Intravenous formulation of artelinic acid for treatment of severe and complicated malaria” (priority 2002, published 2003)", "key": {"[1]": {"assay": "Stability of bulk salt and solutions on standing", "assay_type": "physicochemical", "from_the_text": "The precipitates were identified by NMR and x-ray crystallography to be pure artelinic acid.\nFeasibility of using preformed AL salts with three basic amino acids, L-lysine, L-arginine or L-histidine for AL intravenous formulation were studied. The basicity of histidine is too weak to form water soluble AL-histidine salt. […] Therefore, L-lysine was deemed the most feasible.\nAL/LY is soluble in water, saline, glucose solution or any IV injectable (neutral or basic) water solution. […] Therefore, for practical purpose, the preferred vehicle for intravenous injection is a normal saline or 5% glucose solution containing 0.1-0.5% L-lysine. The final osmolarity is around 290 mosm/kg."}, "[2]": {"details": "cited from earlier work; for CNS toxicity versus oil soluble analogs such as artemether and arteether: rats and dogs; for CNS toxicity: chronically dosed rats and dogs"}, "[3]": {"protocol": "The most commonly used water soluble salt for acidic drugs is sodium salt. The sodium salt of artelinic acid was prepared in our laboratory by dissolving artelinic acid in a slightly less than one equivalent mole of sodium hydroxide solution. The slight excess amount of insoluble artelinic acid was removed by extraction of the mixture with diethyl ether. The aqueous layer was evaporated under reduced pressure using a rotary evaporator to remove the small amount of volatile diethyl ether, and then lyophilized to give sodium artelinate as a white powder."}, "P. knowlesi": {"test_system": "P. knowlesi", "details": "rhesus monkeys, 15 mg/kg×3 days; cited from earlier work"}, "P. berghei": {"test_system": "P. berghei", "details": "administered orally; cited from earlier work"}, "[4]": {"details": "in vivo; cited from earlier work"}, "P. coatneyi malaria": {"test_system": "P. coatneyi malaria", "assay": "AL/LY Efficacy in Uncomplicated Malaria (rhesus)", "assay_type": "in vivo", "details": "control animal, 7 days of IM BID", "protocol": "1. AL/LY Efficacy in Uncomplicated Malaria (done with PK trial)\ni. 10 splenectomized rhesus with mild P. coatneyi malaria (mean parasitemia 773K/μl or 11.8%) and one quinine control (773K/μl or 13.5%). All asymptomatic.\nii. 11.8 mg/kg loading dose given IV push over 3 minutes, then 5.9 mg/kg for 2 days"}, "severe malaria": {"test_system": "severe malaria", "assay": "Efficacy in Severe Malaria (rhesus)", "assay_type": "in vivo"}, "[5]": {"details": "aqueous solution made in 5% sodium bicarbonate; cited from earlier work"}, "[6]": {"assay": "Intravenous toxicity and tolerance in rat", "assay_type": "in vivo", "details": "in 5% sodium carbonate vehicle", "from_the_text": "Although a ready-to-use intravenous solution in a multiple dose vial is a convenient and preferable formulation, current formulation of dissolving preformed AL/LY salt in 0.3% of L-lysine/saline solution prior to administration has been used satisfactorily to assess the efficacy and toxicity of AL in rat, Aotus and Rhesus monkey models."}}, "data": [{"compound": "CC1CCC2C(C)C(OCc3ccc(C(=O)O)cc3)OC3OC4(C)CCC1C32OO4.N=C(N)NCCCC(N)C(=O)O", "note": "(stereo not shown) [AL-arginine salt]", "values": [{"measurement": "colour of aqueous solution on standing", "setting": "[1]; room temperature, within two days to one week", "result": "turned to deep red color"}]}, {"compound": "C[C@H]1[C@H](OC(=O)CCC(=O)O)O[C@@H]2O[C@@]3(C)CC[C@H]4[C@H](C)CC[C@@H]1[C@@]24OO3", "note": "[AS, artesunic acid]", "values": [{"measurement": "CNS toxicity versus oil soluble analogs such as artemether and arteether", "setting": "[2]", "result": "substantially less CNS toxicity"}]}, {"compound": "C[C@H]1[C@@H](OCc2ccc(C(=O)[O-])cc2)O[C@@H]2O[C@]3(C)CC[C@H]4[C@H](C)CC[C@@H]1[C@@]24OO3.[Na+]", "note": "[Na-AL, Sodium artelinate]", "values": [{"measurement": "solubility in distilled water", "setting": "[3]", "result": "does not dissolve completely"}, {"measurement": "solubility in sodium carbonate solution", "setting": "[3]", "result": "very soluble"}, {"measurement": "water solubility", "setting": "[3]", "result": "> 60", "unit": "mg/mL"}, {"measurement": "cure of infection", "setting": "P. knowlesi", "result": "complete cures"}, {"measurement": "efficacy", "setting": "P. berghei", "result": "highly effective"}, {"measurement": "time the solution stayed clear", "setting": "[1]; in sodium carbonate 0.1 to 0.5%, depending on concentration", "result": "from one week to one month"}, {"measurement": "appearance of freshly prepared aqueous solution on standing", "setting": "[1]; room temperature", "result": "turned turbidity"}, {"measurement": "decomposition product on standing", "setting": "[1]; room temperature for three months", "result": "No decomposition product was detected"}, {"measurement": "crystal formation on longer standing", "setting": "[1]; sodium carbonate solutions, room temperature, longer period, free artelinic acid", "result": "crystallized out from all solutions"}, {"measurement": "plasma half-life", "setting": "[4]", "result": "90 to 180", "unit": "min"}]}, {"compound": "CCO[C@H]1O[C@@H]2O[C@@]3(C)CC[C@H]4[C@H](C)CC[C@@H]([C@H]1C)[C@@]24OO3", "note": "[arteether, Arteether]", "values": [{"measurement": "plasma half-life", "setting": "[4]", "result": "short plasma half-life"}, {"measurement": "CNS toxicity", "setting": "[2]", "result": "fatal CNS toxicity"}]}, {"compound": "CO[C@H]1O[C@@H]2O[C@@]3(C)CC[C@H]4[C@H](C)CC[C@@H]([C@H]1C)[C@@]24OO3", "note": "[artemether, Artemether]", "values": [{"measurement": "plasma half-life", "setting": "[4]", "result": "short plasma half-life"}, {"measurement": "CNS toxicity", "setting": "[2]", "result": "fatal CNS toxicity"}]}, {"compound": "C=C[C@H]1C[N@@]2CC[C@H]1C[C@H]2[C@H](O)c1ccnc2ccc(OC)cc12", "note": "[quinine]", "values": [{"measurement": "day on which parasitemia cleared", "setting": "P. coatneyi malaria", "result": 8, "unit": "days"}, {"measurement": "cure", "setting": "severe malaria; IM BID for 7 days", "result": "all cured"}, {"measurement": "parasitemia cleared, mean time", "setting": "severe malaria; IM BID for 7 days", "result": 5.6, "unit": "days"}, {"measurement": "time to resolution of severe malaria symptoms", "setting": "severe malaria; IM BID for 7 days", "result": 3, "unit": "days"}, {"measurement": "survived", "setting": "severe malaria; IM BID for 7 days, controls (4 of 5)", "result": 80, "unit": "%"}, {"measurement": "died", "setting": "severe malaria; therapy delayed 24 hours", "result": 50, "unit": "%"}]}, {"compound": "C[C@H]1[C@H](OC(=O)CCC(=O)[O-])O[C@@H]2O[C@@]3(C)CC[C@H]4[C@H](C)CC[C@@H]1[C@@]24OO3.[Na+]", "note": "[sodium artesunate, Sodium artesunate]", "values": [{"measurement": "time within which dihydroartemisinin precipitates out from unused solution", "setting": "[5]", "result": "2 to 3", "unit": "h"}, {"measurement": "plasma half-life", "setting": "[4]", "result": "20 to 30", "unit": "min"}]}, {"compound": "artelinic acid [AL]", "values": [{"measurement": "water solubility", "setting": "[3]", "result": "not water soluble"}, {"measurement": "LD50", "setting": "[6]; female rat", "result": 50, "unit": "mg/kg"}, {"measurement": "LD50", "setting": "[6]; male rat", "result": 67, "unit": "mg/kg"}, {"measurement": "CNS toxicity versus oil soluble analogs such as artemether and arteether", "setting": "[2]", "result": "substantially less CNS toxicity"}]}]}
